# Measured values as given in ChEMBL document CHEMBL5584236, “Development of novel bisphenol derivatives with a membrane-targeting mechanism as potent gram-positive antibacterial agents” (Eur J Med Chem, 2024).
# Columns and labels:
# Staphylococcus aureus [1] = experiment: Drug resistance, ratio of MIC for Staphylococcus aureus ATCC29213 after 13 passages to MIC for Staphylococcus aureus ATCC29213 after initial exposure; format: functional
# Staphylococcus aureus [2] = experiment: Antibacterial activity against Staphylococcus aureus ATCC25923 assessed as reduction in microbial growth incubated for 22 to 24 hrs by CLSI based broth microdilution method; format: functional; details: time 22-24 hrs
# Staphylococcus aureus [3] = experiment: Antibacterial activity against Staphylococcus aureus ATCC29213 infected in C57BL6 mouse corneal infection model assessed as log reduction in CFU at 5 % administered topically on corneas for four times in 3 days by MHA plate counting method; format: functional; details: time 3 day
# Staphylococcus aureus [4] = experiment: Antibacterial activity against Staphylococcus aureus ATCC29213 assessed as reduction in microbial growth incubated for 22 to 24 hrs by CLSI based broth microdilution method; format: functional; details: time 22-24 hrs
# [5] = Hemolytic activity against rabbit RBC incubated for 1 hr by multimode plate reader; format: toxicity, cell-based, Oryctolagus cuniculus, Erythrocyte; details: rabbit red blood cells (erythrocytes)
# Staphylococcus aureus [6] = experiment: Antibacterial activity against methicillin-resistant Staphylococcus aureus NCTC10442 assessed as reduction in microbial growth incubated for 22 to 24 hrs by CLSI based broth microdilution method; format: functional; details: time 22-24 hrs
# Staphylococcus aureus [7] = experiment: Antibacterial activity against methicillin-resistant Staphylococcus aureus N315 assessed as reduction in microbial growth incubated for 22 to 24 hrs by CLSI based broth microdilution method; format: functional; details: time 22-24 hrs
# Escherichia coli = experiment: Antibacterial activity against Escherichia coli ATCC25922 assessed as reduction in microbial growth incubated for 22 to 24 hrs by CLSI based broth microdilution method; format: functional; details: time 22-24 hrs
# Acinetobacter baumannii [8] = experiment: Antibacterial activity against Acinetobacter baumannii ATCC17978 assessed as reduction in microbial growth incubated for 22 to 24 hrs by CLSI based broth microdilution method; format: functional; details: time 22-24 hrs
# [9] = test system: Staphylococcus epidermidis; experiment: Antibacterial activity against Staphylococcus epidermidis ATCC12228 assessed as reduction in microbial growth incubated for 22 to 24 hrs by CLSI based broth microdilution method; format: functional; details: time 22-24 hrs
# Acinetobacter baumannii [10] = experiment: Antibacterial activity against Acinetobacter baumannii R28889 assessed as reduction in microbial growth incubated for 22 to 24 hrs by CLSI based broth microdilution method; format: functional; details: time 22-24 hrs
# [11] = test system: Staphylococcus epidermidis; experiment: Antibacterial activity against Staphylococcus epidermidis CMCC26069 assessed as reduction in microbial growth incubated for 22 to 24 hrs by CLSI based broth microdilution method; format: functional; details: time 22-24 hrs
# Klebsiella pneumoniae = experiment: Antibacterial activity against Klebsiella pneumoniae ATCC10031 assessed as reduction in microbial growth incubated for 22 to 24 hrs by CLSI based broth microdilution method; format: functional; details: time 22-24 hrs
Compound,Ratio (Staphylococcus aureus [1]),MIC (Staphylococcus aureus [2]) [µg/mL],log(activity) (Staphylococcus aureus [3]),MIC (Staphylococcus aureus [4]) [µg/mL],HC50 at 1 h [5] [µg/mL],MIC (Staphylococcus aureus [6]) [µg/mL],MIC (Staphylococcus aureus [7]) [µg/mL],MIC (Escherichia coli) [µg/mL],MIC (Acinetobacter baumannii [8]) [µg/mL],MIC [9] [µg/mL],MIC (Acinetobacter baumannii [10]) [µg/mL],MIC [11] [µg/mL],MIC (Klebsiella pneumoniae) [µg/mL]
CCn1cc(C(=O)O)c(=O)c2cc(F)c(N3CCNCC3)cc21 [NORFLOXACIN],4,–,–,–,–,–,–,–,–,–,–,–,–
CN[C@H](CC(C)C)C(=O)N[C@H]1C(=O)N[C@@H](CC(N)=O)C(=O)N[C@H]2C(=O)N[C@H]3C(=O)N[C@H](C(=O)N[C@H](C(=O)O)c4cc(O)cc(O)c4-c4cc3ccc4O)[C@H](O)c3ccc(c(Cl)c3)Oc3cc2cc(c3O[C@@H]2O[C@H](CO)[C@@H](O)[C@H](O)[C@H]2O[C@H]2C[C@](C)(N)[C@H](O)[C@H](C)O2)Oc2ccc(cc2Cl)[C@H]1O [VANCOMYCIN],–,0.78,4.8,0.78,–,–,–,–,–,–,–,–,–
COC(=O)[C@H](CCCNC(=N)N)NC(=O)COc1ccc(S(=O)(=O)c2ccc(OCC=C(C)C)cc2)cc1,–,–,–,25,200,12.5,12.5,> 50,–,–,–,–,–
CC(C)=CCOc1ccc(S(=O)(=O)c2ccc(OCCCCN(C)C)cc2)cc1,–,–,–,25,67.8,12.5,12.5,50,–,–,–,–,–
C=CCOc1ccc(S(=O)(=O)c2ccc(OCC(=O)OCC)cc2)cc1,–,–,–,> 50,> 200,> 50,> 50,> 50,–,–,–,–,–
COC(=O)[C@H](CCCNC(=N)N)NC(=O)[C@H](CCCNC(=N)N)NC(=O)[C@H](CCCNC(=N)N)NC(=O)COc1ccc(S(=O)(=O)c2ccc(OCC=C(C)C)cc2)cc1,–,–,–,12.5,> 200,6.25,6.25,> 50,–,–,–,–,–
COC(=O)[C@H](CCCNC(=N)N)NC(=O)[C@H](CCCNC(=N)N)NC(=O)COc1ccc(S(=O)(=O)c2ccc(OCC=C(C)C)cc2)cc1,–,–,–,25,> 200,6.25,6.25,> 50,–,–,–,–,–
C=CCOc1ccc(S(=O)(=O)c2ccc(OCC(=O)N[C@@H](CCCNC(=N)N)C(=O)OC)cc2)cc1,–,–,–,> 50,> 200,> 50,> 50,> 50,–,–,–,–,–
COC(=O)[C@H](CCCNC(=N)N)NC(=O)[C@H](CCCNC(=N)N)NC(=O)[C@H](CCCNC(=N)N)NC(=O)COc1ccc(S(=O)(=O)c2ccc(OC/C=C(/C)CCC=C(C)C)cc2)cc1,–,–,–,0.78,165,0.78,0.78,6.25,–,–,–,–,–
O=S(=O)(c1ccc(O)cc1)c1ccc(O)cc1,–,–,–,> 50,> 200,> 50,> 50,> 100,–,–,–,–,–
CCOC(=O)COc1ccc(S(=O)(=O)c2ccc(OC/C=C(/C)CCC=C(C)C)cc2)cc1,–,–,–,> 50,> 200,> 50,> 50,> 50,–,–,–,–,–
CC(C)=CCOc1ccc(S(=O)(=O)c2ccc(OCCCCNC(=N)N)cc2)cc1,–,3.12,–,3.12,> 200,3.12,1.56,12.5,6.25,1.56,6.25,1.56,6.25
COC(=O)[C@H](CCCNC(=N)N)NC(=O)COc1ccc(S(=O)(=O)c2ccc(OC/C=C(/C)CCC=C(C)C)cc2)cc1,–,–,–,> 50,> 200,50,50,> 50,–,–,–,–,–
CCN(CC)CCCCOc1ccc(S(=O)(=O)c2ccc(OCC=C(C)C)cc2)cc1,–,–,–,50,69.4,25,25,> 50,–,–,–,–,–
CCNCCCCOc1ccc(S(=O)(=O)c2ccc(OCC=C(C)C)cc2)cc1,–,–,–,25,70.8,25,25,> 50,–,–,–,–,–
COC(=O)[C@H](CCCNC(=N)N)NC(=O)COc1ccc(S(=O)(=O)c2ccc(OC(C)C)cc2)cc1,–,–,–,> 50,> 200,> 50,> 50,> 50,–,–,–,–,–
CC(C)=CCOc1ccc(S(=O)(=O)c2ccc(OCCCNC(=N)N)cc2)cc1,–,–,–,6.25,> 200,3.12,3.12,50,–,–,–,–,–
C=CCOc1ccc(S(=O)(=O)c2ccc(OCCCCNC(=N)N)cc2)cc1,–,–,–,6.25,> 200,6.25,6.25,50,–,–,–,–,–
COC(=O)[C@H](CCCNC(=N)N)NC(=O)[C@H](CCCNC(=N)N)NC(=O)[C@H](CCCNC(=N)N)NC(=O)COc1ccc(S(=O)(=O)c2ccc(OC(C)C)cc2)cc1,–,–,–,> 50,> 200,> 50,> 50,> 50,–,–,–,–,–
CC(C)Oc1ccc(S(=O)(=O)c2ccc(OCCCCNC(=N)N)cc2)cc1,–,–,–,12.5,> 200,6.25,6.25,50,–,–,–,–,–
CC[C@H](C)[C@H](NC(=O)CN)C(=O)NCC(=O)N[C@@H](C)C(=O)N[C@H](C(=O)N[C@@H](CC(C)C)C(=O)N[C@@H](CCCCN)C(=O)N[C@H](C(=O)N[C@@H](CC(C)C)C(=O)N[C@H](C(=O)N[C@H](C(=O)NCC(=O)N[C@@H](CC(C)C)C(=O)N1CCC[C@H]1C(=O)N[C@@H](C)C(=O)N[C@@H](CC(C)C)C(=O)N[C@H](C(=O)N[C@@H](CO)C(=O)N[C@@H](Cc1c[nH]c2ccccc12)C(=O)N[C@H](C(=O)N[C@@H](CCCCN)C(=O)N[C@@H](CCCNC(=N)N)C(=O)N[C@@H](CCCCN)C(=O)N[C@@H](CCCNC(=N)N)C(=O)N[C@@H](CCC(N)=O)C(=O)N[C@@H](CCC(N)=O)C(N)=O)[C@@H](C)CC)[C@@H](C)CC)[C@@H](C)O)[C@@H](C)O)C(C)C)C(C)C [MELITTIN],–,–,–,–,–,–,–,–,3.12,–,3.12,–,6.25
CC(C)=CCC/C(C)=C\COc1ccc(S(=O)(=O)c2ccc(OCCCCNC(=N)N)cc2)cc1,–,–,–,1.56,144,0.78,0.78,> 50,–,–,–,–,–
CC(C)=CCOc1ccc(S(=O)(=O)c2ccc(OCCCCN)cc2)cc1,–,–,–,25,> 200,6.25,6.25,> 50,–,–,–,–,–
C=CCCCCCOc1ccc(S(=O)(=O)c2ccc(OCCCCNC(=N)N)cc2)cc1,–,–,–,1.56,> 200,0.78,0.78,> 50,–,–,–,–,–
CCOC(=O)COc1ccc(S(=O)(=O)c2ccc(OC(C)C)cc2)cc1,–,–,–,> 50,> 200,> 50,> 50,> 50,–,–,–,–,–
CC(C)=CCOc1ccc(S(=O)(=O)c2ccc(OCCOCCNC(=N)N)cc2)cc1,–,–,–,6.25,> 200,3.12,3.12,50,–,–,–,–,–
CCOC(=O)COc1ccc(S(=O)(=O)c2ccc(OCC=C(C)C)cc2)cc1,–,–,–,> 50,> 200,> 50,> 50,> 50,–,–,–,–,–
